Laboratory results taken from patent US8211929B2, “Pyrimidine derivatives as kinase modulators and method of use” (Exelixis, Inc., priority 2004, dated 2012).
Where two headings read alike, the source gives them in different places.

Key:
IGF 3P = target: T1, IGF 3P (Homo sapiens, UniProt P08069); assay: IGF1R kinase assay (LCCA), IGF 3P; type: biochemical
T1 construct: human IGF1R kinase domain residues M954-C1367; made in house; host or cells: baculovirus expression (insect cells)
Protocol: (§1) Kinase activity and compound inhibition are investigated using one or more of the three assay formats described below. The ATP concentrations for each assay are selected to be close to the Michaelis-Menten constant (KM) for each individual kinase. Dose-response experiments are performed at 10 different inhibitor concentrations in a 384-well plate format. […] Y=Min+(Max−Min)/(1+(X/IC50)^H) Equation (2)
(§2) IGF1R kinase biochemical activity was assessed using a Luciferase-Coupled Chemiluminescent Kinase assay (LCCA) format. Kinase activity was measured as the percent ATP remaining following the kinase reaction. Remaining ATP was detected by luciferase-luciferin-coupled chemiluminescence. Specifically, the reaction was initiated by mixing test compounds, 3 μM ATP, 4 μM poly EY peptide and 4 nM IGF1R (baculovirus expressed human IGF1R kinase domain residues M954-C1367) in a 20 uL assay buffer (20 mM Tris-HCL pH7.5, 10 mM MgCl2, 0.02% Triton X-100, 1 mM DTT, 2 mM MnCl2). The mixture is incubated at ambient temperature for 2 hours after which 20 uL luciferase-luciferin mix is added and the chemiluminescent signal read using a Wallac Victor^2 reader.

[1] = target: T2, (Homo sapiens, UniProt P08069); assay: IGF1R kinase assay (LCCA), IGF 0P; type: biochemical
T2 construct: human IGF1R kinase domain residues M954-C1367; made in house; host or cells: baculovirus expression (insect cells)
T2 sequence (P08069 954-1367): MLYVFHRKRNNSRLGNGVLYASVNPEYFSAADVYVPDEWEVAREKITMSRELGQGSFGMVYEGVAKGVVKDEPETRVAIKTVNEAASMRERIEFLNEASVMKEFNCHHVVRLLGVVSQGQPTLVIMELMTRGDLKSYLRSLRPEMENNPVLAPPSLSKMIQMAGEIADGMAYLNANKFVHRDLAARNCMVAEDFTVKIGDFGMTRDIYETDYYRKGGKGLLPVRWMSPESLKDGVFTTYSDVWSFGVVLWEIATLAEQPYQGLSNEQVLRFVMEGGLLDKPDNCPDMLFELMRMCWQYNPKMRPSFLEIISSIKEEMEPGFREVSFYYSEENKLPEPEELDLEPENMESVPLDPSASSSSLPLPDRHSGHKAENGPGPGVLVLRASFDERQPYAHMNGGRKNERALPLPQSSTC
Protocol: as §1, §2

T1 sequence (P08069 954-1367): as above

Row | SMILES | IC50 (IGF 3P; IGF1R kinase LCCA assay) [µM] | IC50 ([1]; IGF1R kinase LCCA assay) [µM] | IC50 (IGF 3P) [µM] | IC50 [1] [µM]
1 | Brc1cnc(Nc2ccc(N3CCOCC3)nc2)nc1Nc1cc(C2CC2)n[nH]1 [Example 81] | 0.05 to 0.5 | 0.5 to 5 | – | –
2 | Cc1cc(NCc2ccccc2)nc(NCc2cc(-c3ccccc3)no2)n1 [Example 298] | > 5 | > 5 | – | –
3 | COc1cc(Nc2ncc(Br)c(Nc3cc(C)on3)n2)cc(OC)c1 [Example 53] | < 0.05 | 0.05 to 0.5 | – | –
4 | O=C(Nc1ccc(N2CCOCC2)cc1)c1nc(Nc2ccccc2Cl)nc(Nc2cc(C3CC3)n[nH]2)c1[N+](=O)[O-] [Example 278] | > 5 | > 5 | – | –
5 | FC(F)(F)c1ccc(-c2ncc(CNc3ncc(Br)c(Nc4cc(C5CC5)[nH]n4)n3)s2)cc1 [Example 288] | > 5 | > 5 | – | –
6 | CN1CCC(Oc2cc(Nc3cc(C4CC4)[nH]n3)nc(NCc3cc(-c4ccccc4)no3)n2)C1 (centres unmarked) [Example 515] | < 0.05 | 0.05 to 0.5 | – | –
7 | Cc1cc(Nc2cc(C3CC3)n[nH]2)nc(Nc2ccc(CCC(=O)N(C)C)cc2)n1 [Example 111] | 0.05 to 0.5 | 0.5 to 5 | – | –
8 | Brc1cnc(Nc2ccc(N3CCOCC3)cc2)nc1Nc1ccc2c(c1)CNCC2 [Example 534] | < 0.05 | 0.5 to 5 | – | –
9 | CN(C)c1ccc(Nc2nccc(Nc3cc(C4CC4)n[nH]3)n2)cc1 [Example 238] | 0.5 to 5 | 0.5 to 5 | – | –
10 | Cc1cc(Nc2cc(C(C)C)[nH]n2)nc(NCc2cc(C(C)C)no2)n1 [Example 526] | < 0.05 | 0.5 to 5 | – | –
11 | Cc1cc(Nc2cc(C3CC3)n[nH]2)nc(Nc2cc(C(F)(F)F)cc(C(F)(F)F)c2)n1 [Example 300] | > 5 | > 5 | – | –
12 | Fc1cc(F)cc(Nc2ncc(Br)c(Nc3cc(C4CC4)n[nH]3)n2)c1 [Example 313] | > 5 | > 5 | – | –
13 | Brc1cnc(Nc2ccc(N3CCOCC3)cc2)nc1Nc1cc(-c2ccco2)[nH]n1 [Example 80] | 0.05 to 0.5 | 0.05 to 0.5 | – | –
14 | c1ccc(CN2CCc3c(nc(NCc4cc(-c5ccccc5)no4)nc3Nc3cc(C4CC4)[nH]n3)C2)cc1 [Example 242] | 0.5 to 5 | 0.5 to 5 | – | –
15 | Brc1cnc(Nc2ccc(N3CCNCC3)cc2)nc1Nc1cc(C2CC2)n[nH]1 [Example 255] | 0.5 to 5 | > 5 | – | –
16 | Cc1cc(Nc2cc(C3CC3)n[nH]2)nc(Nc2ccc(CCC(=O)NCCCN3CCCCC3)cc2)n1 [Example 51] | < 0.05 | > 5 | – | –
17 | Brc1cnc(NCc2ccco2)nc1Nc1cc(C2CC2)n[nH]1 [Example 138] | 0.05 to 0.5 | 0.05 to 0.5 | – | –
18 | Cc1cc(CNc2nc(Nc3cc(C4CC4)n[nH]3)cc(N3CCN(C)CC3)n2)on1 [Example 602, N^4-(3-cyclopropyl-1H-pyrazol-5-yl)-N^2-[(3-methylisoxazol-5-yl)methyl]-6-(4-methylpiperazin-1-yl)pyrimidine-2,4-diamine] | – | – | < 0.05 | 0.05 to 0.5
19 | CC(C)c1cc(CNc2nc(NCCN3CCN(C)CC3)cc(Nc3cc(C4CC4)[nH]n3)n2)on1 [Example 559] | < 0.05 | 0.5 to 5 | – | –
20 | Cc1cc(Nc2cc(C3CC3)n[nH]2)nc(NCc2nc(C(=O)NCCc3ccccc3F)cs2)n1 [Example 571] | 0.5 to 5 | 0.5 to 5 | – | –
21 | CC(C)c1cc(Nc2cc(N3CCN(C)CC3)nc(NCc3cc(-c4ccccc4)no3)n2)n[nH]1 [Example 497] | < 0.05 | 0.05 to 0.5 | – | –
22 | CN1CCN(c2ncc(Br)c(Nc3cc(C4CC4)[nH]n3)n2)CC1 [Example 249] | 0.5 to 5 | > 5 | – | –
23 | c1ccc(-c2cc(CNc3nc(Nc4cc(C5CC5)[nH]n4)cc(OCCN4CCOCC4)n3)on2)cc1 [Example 501] | < 0.05 | 0.05 to 0.5 | – | –
24 | Cc1cc(Nc2cc(C3CC3)n[nH]2)nc(Nc2cc(F)cc(F)c2)n1 [Example 259] | > 5 | 0.5 to 5 | – | –
25 | Cc1cc(Nc2cc(C3CC3)n[nH]2)nc(Nc2ccc(N3CCOCC3)cc2)n1 [Example 268] | > 5 | > 5 | – | –

Row | SMILES | IC50 (IGF 3P; IGF1R kinase LCCA assay) [µM] | IC50 ([1]; IGF1R kinase LCCA assay) [µM] | IC50 (IGF 3P) [µM] | IC50 [1] [µM]
26 | O=[N+]([O-])c1cnc(Nc2ccc(Cl)cc2Cl)nc1Nc1cc(C2CC2)n[nH]1 [Example 331] | > 5 | > 5 | – | –
27 | CC(=O)N1CCC(n2cc(-c3cccc(OCc4ccccc4)c3)c3c(N)ncnc32)CC1 [Example 349] | > 5 | > 5 | – | –
28 | Clc1ccccc1CCNc1ncc(Br)c(Nc2cc(C3CC3)n[nH]2)n1 [Example 272] | > 5 | > 5 | – | –
29 | Clc1cccc(CCNc2ncc(Br)c(Nc3cc(C4CC4)n[nH]3)n2)c1 [Example 226] | 0.5 to 5 | > 5 | – | –
30 | CN1CCN(CCNc2cc(Nc3cc(C4CC4)[nH]n3)nc(NCc3cc(-c4ccccc4)no3)n2)CC1 [Example 509] | < 0.05 | 0.05 to 0.5 | – | –
31 | c1cc(Nc2ccon2)nc(Nc2ccc(N3CCOCC3)cc2)n1 [Example 311] | > 5 | > 5 | – | –
32 | CCN(CC)CCNC(=O)CCc1ccc(Nc2nc(C)cc(Nc3ccccc3)n2)cc1 [Example 310] | > 5 | > 5 | – | –
33 | CN(Cc1ccccc1Cl)c1ncc(Br)c(Nc2cc(C3CC3)[nH]n2)n1 [Example 204] | 0.5 to 5 | 0.5 to 5 | – | –
34 | N#Cc1cccc(Nc2ncc(Br)c(Nc3cc(C4CC4)n[nH]3)n2)c1 [Example 196] | 0.5 to 5 | 0.5 to 5 | – | –
35 | CCN(CC)CCCNC(=O)c1ccc(Nc2nccc(Nc3cc(C4CC4)n[nH]3)n2)cc1 [Example 195] | 0.5 to 5 | 0.5 to 5 | – | –
36 | CCN1CCN(c2cc(Nc3cc(C4CC4)n[nH]3)nc(NCc3cc(C(C)C)no3)n2)CC1 [Example 661, N^4-(3-cyclopropyl-1H-pyrazol-5-yl)-6-(4-ethylpiperazin-1-yl)-N^2-{[3-(1-methylethyl)isoxazol-5-yl]methyl}pyrimidine-2,4-diamine] | – | – | < 0.05 | 0.05 to 0.5
37 | CN(C)c1ccc(CNc2ncc(Br)c(Nc3cc(C4CC4)n[nH]3)n2)cc1 [Example 193] | 0.5 to 5 | > 5 | – | –
38 | CN(C)CCOc1cc(Nc2cc(C3CC3)[nH]n2)nc(NCc2cc(-c3ccccn3)no2)n1 [Example 641, N^4-(5-cyclopropyl-1H-pyrazol-3-yl)-6-{[2-(dimethylamino)ethyl]oxy}-N^2-[(3-pyridin-2-ylisoxazol-5-yl)methyl]pyrimidine-2,4-diamine] | – | – | < 0.05 | 0.05 to 0.5
39 | Cc1ncc(CNc2ncc(Br)c(Nc3cc(C4CC4)[nH]n3)n2)s1 [Example 135] | 0.05 to 0.5 | 0.5 to 5 | – | –
40 | Cc1cnc(Nc2ccc(N(C)C)cc2)nc1Nc1cc(C2CC2)n[nH]1 [Example 175] | 0.5 to 5 | 0.5 to 5 | – | –
41 | Cc1cc(Nc2cc(C3CC3)[nH]n2)nc(NCc2cc(-c3cccc(Cl)c3)no2)n1 [Example 538] | 0.05 to 0.5 | 0.05 to 0.5 | – | –
42 | FC(F)(F)Oc1ccccc1Nc1ncc(Br)c(Nc2cc(C3CC3)n[nH]2)n1 [Example 84] | 0.05 to 0.5 | 0.05 to 0.5 | – | –
43 | CC(C)c1cc(Nc2nc(NCc3cc(-c4ccccc4)no3)ncc2Br)[nH]n1 [Example 10] | 0.05 to 0.5 | 0.05 to 0.5 | – | –
44 | Brc1cnc(NCC2CCCO2)nc1Nc1cc(C2CC2)n[nH]1 (centres unmarked) [Example 201] | 0.5 to 5 | > 5 | – | –
45 | Brc1cnc(Nc2ccc(Oc3ccccc3)cc2)nc1Nc1cc(C2CC2)[nH]n1 [Example 321] | > 5 | > 5 | – | –
46 | CC(C)(C)c1cc(Nc2nc(Nc3ccccc3)ncc2Br)n[nH]1 [Example 116] | 0.05 to 0.5 | 0.5 to 5 | – | –
47 | N#Cc1ccc(Nc2ncc(Br)c(Nc3cc(C4CC4)n[nH]3)n2)cc1 [Example 166] | 0.5 to 5 | 0.5 to 5 | – | –
48 | Cc1cc(Nc2cc(C3CC3)[nH]n2)nc(NCc2cc(-c3cnccn3)no2)n1 [Example 623, N^4-(5-cyclopropyl-1H-pyrazol-3-yl)-6-methyl-N^2-[(3-pyrazin-2-ylisoxazol-5-yl)methyl]pyrimidine-2,4-diamine] | – | – | < 0.05 | 0.05 to 0.5
49 | CCN(CC)CCCNc1nc(Nc2ccccc2Cl)nc(Nc2cc(C3CC3)n[nH]2)c1Cl [Example 66] | < 0.05 | 0.05 to 0.5 | – | –
